Data published in US10494366B2, “Pesticidally active amide heterocyclic derivatives with sulphur containing substituents” (Syngenta Participations AG, priority 2014, dated 2019).

Columns and labels:
Type in all cases: in vivo
[1] = system: Plutella xylostella (diamond back moth); experiment: Example B3: Plutella xylostella, treated artificial diet; conditions: 120 h, application rate 200 ppm, L2 larvae, 5 days after infestation, read-out: effect in at least one of the two categories (mortality or growth inhibition)
Protocol: (§1) 24-well microtiter plates with artificial diet were treated with aqueous test solutions prepared from 10,000 ppm DMSO stock solutions by pipetting. After drying, the plates were infested with L2 larvae (10 to 15 per well). The samples were assessed for mortality and growth inhibition in comparison to untreated samples 5 days after infestation.

[2] = system: Spodoptera littoralis (Egyptian cotton leaf worm); experiment: Example B2: Spodoptera littoralis, systemic test via lettuce roots in agar; conditions: 144 h, application rate 12.5 ppm, Spodoptera eggs, 6 days after infestation, read-out: control in at least one of the three categories (mortality, anti-feedancy or growth inhibition)
[3] = system: Diabrotica balteata (corn root worm); experiment: Example B4: Diabrotica balteata, sprayed maize sprouts; conditions: 96 h, application rate 200 ppm, L2 larvae, 4 days after infestation, read-out: effect in at least one of the two categories (mortality or growth inhibition)
Protocol: as §1, with “Maize sprouts, placed on an agar layer in 24-well” for “24-well”, “plates” for “plates with artificial diet”, “spraying.” for “pipetting.”, “(6” for “(10”, “10” for “15”, “4” for “5”

[4] = system: Bemisia tabaci (cotton white fly); experiment: Example B10: Bemisia tabaci, sprayed cotton leaf discs; conditions: foliar, 144 h, application rate 200 ppm, adult white flies, 6 days after incubation
Protocol: Cotton leaf discs were placed on agar in 24-well microtiter plates and sprayed with aqueous test solutions prepared from 10,000 ppm DMSO stock solutions. After drying the leaf discs were infested with adult white flies. The samples were checked for mortality 6 days after incubation.

[5] = system: Myzus persicae (green peach aphid); experiment: Example B5: Myzus persicae, sprayed sunflower leaf discs; conditions: foliar, 144 h, application rate 200 ppm, aphid population of mixed ages, 6 days after infestation
Protocol: Sunflower leaf discs were placed on agar in a 24-well microtiter plate and sprayed with aqueous test solutions prepared from 10,000 ppm DMSO stock solutions. After drying, the leaf discs were infested with an aphid population of mixed ages. The samples were assessed for mortality 6 days after infestation.

[6] = system: Spodoptera littoralis (Egyptian cotton leaf worm); experiment: Example B1: Spodoptera littoralis, sprayed cotton leaf discs; conditions: foliar, 72 h, application rate 200 ppm, L1 larvae, 3 days after infestation, read-out: control in at least one of the three categories (mortality, anti-feedancy or growth inhibition)
[7] = system: Euschistus heros (neotropical brown stink bug); experiment: Example B6: Euschistus heros, sprayed soybean leaf; conditions: 120 h, application rate 200 ppm, N-2 nymphs, 5 days after infestation
Source text: Soybean leaf on agar in 24-well microtiter plates were sprayed with aqueous test solutions prepared from 10,000 ppm DMSO stock solutions. After drying the leaf were infested with N-2 nymphs.

CCS(=O)(=O)c1cc(C2(C#N)CC2)cnc1C(=O)/N=c1\sc(C(F)(F)C(F)(F)F)nn1C [Compound P20, (N)-5-(1-cyanocyclopropyl)-3-ethylsulfonyl-N-[3-methyl-5-(1,1,2,2,2-pentafluoroethyl)-1,3,4-thiadiazol-2-ylidene]pyridine-2-carboxamide]
≥ 80%: percent effect (mortality or growth inhibition) at 200 ppm [1] | percent control (mortality, anti-feedant effect or growth inhibition) at 12.5 ppm [2] | percent effect (mortality or growth inhibition) at 200 ppm [3] | mortality at 200 ppm [4] | mortality at 200 ppm [5] | percent control (mortality, anti-feedant effect or growth inhibition) at 200 ppm [6] | mortality at 200 ppm [7]

CCS(=O)(=O)c1cc(-c2ncc(Cl)s2)cnc1C(=O)/N=c1\sc(C(F)(F)F)nn1C [Compound P57]
≥ 80%: percent effect (mortality or growth inhibition) at 200 ppm [1] | percent effect (mortality or growth inhibition) at 200 ppm [3] | mortality at 200 ppm [4] | percent control (mortality, anti-feedant effect or growth inhibition) at 200 ppm [6]
